Reference: patent US8912141B2, “Treatment of hepatitis C virus” (Panmed Ltd., priority 2011, dated 2014)
“Also recorded” adds a separate entry of the source. Read-outs that look alike come from different tables or passages of the source.

Key:
[1] = cited from earlier work
HCV replicon = HCV replicon antiviral assay in Huh7 cells, HCV RNA by RT-PCR, 72 hours; combinations analysed by Prichard-Shipman / Bliss independence; assay type: cell-based, hepatitis C virus
Protocol: Huh7 cells were maintained at 37° C., in an atmosphere of 5% CO2, in DMEM (Dulbecco's modified Eagle medium) supplemented with 2 mM L-glutamine, non-essential amino acids (NEAA), 10% fetal bovine serum (FBS) and […] geneticin. Cells were sub-divided at a 1:3 or 1:4 ratio every 2-3 days. 24 hours prior to the assay, Huh7 cells were collected, counted, plated in 96-well plates at 7,500 cells/well in […] standard maintenance medium, and incubated in the conditions above. To initiate the assay, culture medium was removed, and cells were washed once with PBS (phosphate buffer saline). For control compounds only, […] assay medium (DMEM with L-glutamine, NEAA, and 10% FBS) was added.
Test compounds were prepared as a 10× stock in assay medium. Serial dilutions of compounds in assay medium were added in a total volume of […] and the plates were then rocked to mix, and incubated as described above for 72 hours.
HCV RNA levels were measured using TaqMan® RT-PCR. Total cellular RNA was isolated and amplified by using a RealTime HCV assay (m1000™ Automated Sample Preparation System and M2000rt™ instrument for reverse transcription, PCR amplification, and detection/quantitation, Abbott Molecular Inc.), which detects and quantitates HCV genotypes 1-6. The molecular genotyping method targets the 5′-untranslated (UTR) region of the virus genome and is based on an amplification of the viral genome. […] A negative control, low positive control and high positive control were also introduced. Results are reported in International Units per ml (IU/ml), and 1 IU/ml=4.3 copies/ml. […]
The effects of drug combinations were evaluated according to the method described by Prichard & Shipman [Antiviral Res 1990, 14:181-205]. The theoretical additive effect was calculated from the dose-response curves of individual compounds by the equation Z=X+Y(1−X) (an equation referred to in the art as a Bliss independence model), where X and Y represent the inhibition produced by the individual compounds and Z represents the theoretical effect produced by the combination of compounds. […]

various proteases = experiment: Protease inhibition; assay type: biochemical

CCN(CC)CCCC(C)Nc1ccnc2cc(Cl)ccc12 (centres unmarked) [chloroquine]
retinotoxicity relative to hydroxychloroquine ([1]; in vivo): much more retinotoxic

C=C[C@@H]1C[C@]1(NC(=O)[C@@H]1C[C@@H](OC(=O)N2Cc3cccc(F)c3C2)CN1C(=O)[C@@H](NC(=O)OC(C)(C)C)C(C)(C)C)C(=O)NS(=O)(=O)C1CC1 [GNS-227]
antiviral activity towards HCV (HCV replicon): an antiviral activity towards HCV | GNS-227 concentration at which synergy was best achieved (HCV replicon; in combination with HCQ): about 3.7 nM | protease inhibition activity (various proteases): exhibit inhibition activity on various proteases; also recorded: exhibit a protease inhibition activity

CCN(CCO)CCCC(C)Nc1ccnc2cc(Cl)ccc12 (centres unmarked) [HCQ, 2-[[4-[(7-chloro-4-quinolinyl)amino]pentyl]ethylamino]ethanol]
HCQ concentration at which synergy was best achieved (HCV replicon; in combination with GNS-227): about 6 μM | toxicity relative to chloroquine ([1]; in vivo): less toxic | toxicity relative to chloroquine ([1]; in vivo, listed as hydroxychloroquine): one-half as toxic | effectiveness relative to chloroquine ([1]; treating rheumatologic diseases): one-half to two-thirds as effective as chloroquine
